Ki data for 39 molecules are collected here from US8642642B2, “Heterocyclic arylsulphones suitable for treating disorders that respond to modulation of the serotonin 5HT6 receptor” (Abbott Laboratories, priority 2006, dated 2014).

Counter-ions that a name gives are not always drawn.

The target of the experiment is T1, human 5-HT6 receptor (Homo sapiens, UniProt P50406).
T1 construct: expressed in transfected cells
T1 sequence (P50406 whole entry): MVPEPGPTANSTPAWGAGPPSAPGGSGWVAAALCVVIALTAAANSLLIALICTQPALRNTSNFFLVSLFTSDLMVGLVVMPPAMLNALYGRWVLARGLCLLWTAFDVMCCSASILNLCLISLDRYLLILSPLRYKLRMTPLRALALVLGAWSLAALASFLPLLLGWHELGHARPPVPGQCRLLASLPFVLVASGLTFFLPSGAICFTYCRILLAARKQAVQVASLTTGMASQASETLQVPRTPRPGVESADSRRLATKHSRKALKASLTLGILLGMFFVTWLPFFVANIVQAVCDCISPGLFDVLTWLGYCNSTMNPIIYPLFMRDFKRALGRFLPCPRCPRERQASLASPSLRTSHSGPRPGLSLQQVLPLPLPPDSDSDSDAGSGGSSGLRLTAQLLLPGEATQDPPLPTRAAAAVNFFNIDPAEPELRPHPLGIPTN
Put plainly: Human 5-HT6 receptor binding assay (3H-LSD displacement). Particulars: membranes from HEK-293 cells, 2 nM 3H-LSD. As to the method: The substance to be tested was either dissolved in methanol/Chremophor® (BASF-AG) or in dimethyl sulfoxide and then diluted with water to the desired concentration.
The compounds were dissolved in a concentration of 10^−2 M or 10^−3 M in DMSO. Further dilutions were performed in incubation buffer.
The procedure for the binding assay was based on the method of Monsma et al. (1993) Mol Pharmacol 43: 320-327. The binding reaction was carried out in a total volume of 0.250 ml for 60 min at 37° C. Membranes from HEK-293 cells stably expressing the human 5-HT6 receptor were incubated with 2 nM ^3H-LSD in the presence or absence of various concentrations of test compound for 60 min at 37° C. Non-specific binding was defined with 100 μM Serotonin (5-HT). Assays were performed in duplicate. Bound and free radioligand was separated by filtration and bound radioactivity determined by liquid scintillation counting.
The specific ligand binding to the receptors was defined as the difference between the total binding and the nonspecific binding determined in the presence of an excess of unlabelled 5-HT. The results are expressed as a percent of control specific binding obtained in the presence of compound. The IC50 values (concentration causing a half-maximal inhibition of control specific binding) and Hill coefficients (nH) were determined by non-linear regression analysis of the competition curves using Hill equation curve fitting.
The inhibition constants (Ki) were calculated from the Cheng Prusoff equation (Ki=IC50/(1+(L/KD)), where L=concentration of radioligand in the assay, and KD=affinity of the radioligand for the receptor).
A word on the Ki: it is a measure of affinity in units of concentration, obtained from inhibition or displacement. Lower therefore signals tighter binding. For `CCCN1CC[C@@H](c2ccc(NS(=O)(=O)c3cccc(OC(F)(F)F)c3)cc2)C1` [Example 1, 3-Trifluoromethoxy-N-[4-((S)-1-propyl-pyrrolidin-3-yl)-phenyl]-benzenesulfonamide and its hydrochloride], the Ki lay within 10 to 50 nM.

With `O=S(=O)(Nc1cccc(C2CCNC2)c1)c1cccc(OC(F)(F)F)c1` (stereo not drawn) [Example 6, N-(3-Pyrrolidin-3-yl-phenyl)-3-trifluoromethoxy-benzenesulfonamide], the Ki was 1 to 10 nM.

As for `O=S(=O)(Nc1cccc([C@@H]2CCNC2)c1)c1cccc(OC(F)(F)F)c1` [Example 7, N—((S)-3-Pyrrolidin-3-yl-phenyl)-3-trifluoromethoxy-benzene sulfonamide], the Ki lay within 1 to 10 nM.

For the molecule `CCCN1CCC(c2cc(NS(=O)(=O)c3cccc(OC(F)(F)F)c3)ccc2OC)C1` (stereo not drawn) [Example 8, N-[4-Methoxy-3-(1-propyl-pyrrolidin-3-yl)-phenyl]-3-trifluoromethoxy-benzenesulfonamide], the Ki fell in the range of 10 to 50 nM.

Molecule `Cc1c(S(=O)(=O)Nc2cccc(C3CNC3)c2)sc2ccc(Cl)cc12` [Example 9, 5-Chloro-3-methyl-benzo[b]thiophene-2-sulfonic acid (3-azetidin-3-yl-phenyl)-amide] gave a Ki of 1 to 10 nM.

`Cc1nc(-c2cccc(S(=O)(=O)Nc3cccc(C4CNC4)c3)c2)cs1` [Example 10, N-(3-Azetidin-3-yl-phenyl)-3-(2-methyl-thiazol-4-yl)-benzenesulfonamide]: the inhibition constant (Ki) was 1 to 10 nM.

`O=S(=O)(Nc1ccc(C2CNC2)cc1)c1cccc(C(F)(F)F)c1` [Example 11, N-(4-Azetidin-3-yl-phenyl)-3-trifluoromethyl-benzenesulfonamide] displayed a Ki of 1 to 10 nM.

The molecule `O=S(=O)(Nc1cccc(C2CNC2)c1)c1cccs1` [Example 12, Thiophene-2-sulfonic acid (3-azetidin-3-yl-phenyl)-amide] displayed a Ki of 10 to 50 nM.

`O=S(=O)(Nc1cccc(C2CNC2)c1)c1cc(C(F)(F)F)cc(C(F)(F)F)c1` [Example 13, N-(3-Azetidin-3-yl-phenyl)-3,5-bis-trifluoromethyl-benzenesulfonamide]: the Ki fell in the range of 10 to 50 nM.

The molecule `COc1ccc(OC)c(S(=O)(=O)Nc2cccc(C3CNC3)c2)c1` [Example 14, N-(3-Azetidin-3-yl-phenyl)-2,5-dimethoxy-benzenesulfonamide] came in with a Ki of 1 to 10 nM.

`O=S(=O)(Nc1cccc(C2CNC2)c1)c1cccc(F)c1` [Example 15, N-(3-Azetidin-3-yl-phenyl)-3-fluoro-benzenesulfonamide] displayed a Ki of 1 to 10 nM.

As to `O=S(=O)(Nc1cccc(C2CNC2)c1)c1cc(Cl)sc1Cl` [Example 16, 2,5-Dichloro-thiophene-3-sulfonic acid (3-azetidin-3-yl-phenyl)-amide], the Ki lay within 1 to 10 nM.

In turn, `O=S(=O)(Nc1cccc(C2CNC2)c1)c1cccc(Cl)c1` [Example 17, N-(3-Azetidin-3-yl-phenyl)-3-chloro-benzenesulfonamide] showed a Ki of under 1 nM.

Consider `O=S(=O)(Nc1cccc(C2CNC2)c1)c1cc(Cl)cc(Cl)c1` [Example 18, N-(3-Azetidin-3-yl-phenyl)-3,5-dichloro-benzenesulfonamide], for which the Ki lay within 1 to 10 nM.

On to `Cc1cccc(S(=O)(=O)Nc2cccc(C3CNC3)c2)c1` [Example 19, N-(3-Azetidin-3-yl-phenyl)-3-methyl-benzenesulfonamide], for which the Ki is 1 to 10 nM.

`COc1ccc(Br)cc1S(=O)(=O)Nc1cccc(C2CNC2)c1` [Example 20, N-(3-Azetidin-3-yl-phenyl)-5-bromo-2-methoxy-benzenesulfonamide] showed a Ki of under 1 nM.

For `O=S(=O)(Nc1cccc(C2CNC2)c1)c1ccc(S(=O)(=O)c2ccccc2)s1` [Example 21, 5-Benzenesulfonyl-thiophene-2-sulfonic acid (3-azetidin-3-yl-phenyl)-amide], the Ki lay within 50 to 150 nM.

`COc1ccc(C)cc1S(=O)(=O)Nc1cccc(C2CNC2)c1` [Example 22, N-(3-Azetidin-3-yl-phenyl)-2-methoxy-5-methyl-benzenesulfonamide]: the inhibition constant Ki is 1 to 10 nM.

`CSc1nccc(-c2ccc(S(=O)(=O)Nc3cccc(C4CNC4)c3)s2)n1` [Example 23, 5-(2-Methylsulfanyl-pyrimidin-4-yl)-thiophene-2-sulfonic acid (3-azetidin-3-yl-phenyl)-amide] yielded a Ki of 10 to 50 nM.

Consider `N#Cc1cccc(S(=O)(=O)Nc2cccc(C3CNC3)c2)c1` [Example 24, N-(3-Azetidin-3-yl-phenyl)-3-cyano-benzenesulfonamide], for which the Ki lay in the range of 50 to 150 nM.

With `COc1cccc(S(=O)(=O)Nc2cccc(C3CNC3)c2)c1` [Example 25, N-(3-Azetidin-3-yl-phenyl)-3-methoxy-benzenesulfonamide], the inhibitory constant (Ki) was in the range of 1 to 10 nM.

`Cc1c(S(=O)(=O)Nc2ccc(C3CNC3)cc2)sc2ccc(Cl)cc12` [Example 26, 5-Chloro-3-methyl-benzo[b]thiophene-2-sulfonic acid (4-azetidin-3-yl-phenyl)-amide]: the Ki lay in the range of 1 to 10 nM.

As for `O=S(=O)(Nc1cccc(C2CNC2)c1)c1cccc(C(F)(F)F)c1` [Example 31, N-(3-Azetidin-3-yl-phenyl)-3-trifluoromethyl-benzenesulfonamide], the Ki is 1 to 10 nM.

For `O=S(=O)(Nc1cccc(C2CNC2)c1)c1cccc(OC(F)(F)F)c1` [Example 32, N-(3-Azetidin-3-yl-phenyl)-3-trifluoromethoxy-benzenesulfonamide], the inhibition constant (Ki) was in the range of 1 to 10 nM.

With `CCCN1CC[C@@H](c2ccc(NS(=O)(=O)c3cccc([C@H](C)C(F)F)c3)cc2)C1` [Example 34, 3-((S)-2,2-Difluoro-1-methyl-ethyl)-N-[4-((S)-1-propyl-pyrrolidin-3-yl)-phenyl]-benzenesulfonamide], the Ki was in the range of 10 to 50 nM.

Turning to `CCCN1CC(c2ccc(NS(=O)(=O)c3cc(Cl)ccc3Cl)cc2)C1` [Example 40, 2,5-Dichloro-N-[4-(1-propyl-azetidin-3-yl)-phenyl]-benzenesulfonamide], the Ki lay in the range of 50 to 150 nM.

`CCCN1CC(c2ccc(NS(=O)(=O)c3cc(C(F)(F)F)cc(C(F)(F)F)c3)cc2)C1` [Example 42, N-[4-(1-Propyl-azetidin-3-yl)-phenyl]-3,5-bis-trifluoromethyl-benzenesulfonamide] showed a Ki of 50 to 150 nM.

In turn, `CCCN1CC(c2ccc(NS(=O)(=O)c3cc(C)ccc3C)cc2)C1` [Example 43, 2,5-Dimethyl-N-[4-(1-propyl-azetidin-3-yl)-phenyl]-benzenesulfonamide] came in with a Ki of 10 to 50 nM.

As for `CCCN1CC(c2ccc(NS(=O)(=O)c3ccc(F)c(Cl)c3)cc2)C1` [Example 44, 3-Chloro-4-fluoro-N-[4-(1-propyl-azetidin-3-yl)-phenyl]-benzenesulfonamide], the Ki is 50 to 150 nM.

The molecule `CCCN1CC(c2ccc(NS(=O)(=O)c3cccc(F)c3)cc2)C1` [Example 45, 3-Fluoro-N-[4-(1-propyl-azetidin-3-yl)-phenyl]-benzenesulfonamide] yielded a Ki of 10 to 50 nM.

With `CCCN1CC(c2ccc(NS(=O)(=O)c3cc(Cl)sc3Cl)cc2)C1` [Example 46, 2,5-Dichloro-thiophene-3-sulfonic acid [4-(1-propyl-azetidin-3-yl)-phenyl]-amide], the Ki lay in the range of 50 to 150 nM.

As for `CCCN1CC(c2ccc(NS(=O)(=O)c3ccc(Cl)s3)cc2)C1` [Example 47, 5-Chloro-thiophene-2-sulfonic acid [4-(1-propyl-azetidin-3-yl)-phenyl]-amide], the Ki lay within 10 to 50 nM.

Regarding `CCCN1CC(c2ccc(NS(=O)(=O)c3cccc(Cl)c3)cc2)C1` [Example 48, 3-Chloro-N-[4-(1-propyl-azetidin-3-yl)-phenyl]-benzenesulfonamide], the inhibition constant (Ki) lay within 10 to 50 nM.

`CCCN1CC(c2ccc(NS(=O)(=O)c3cc(Cl)cc(Cl)c3)cc2)C1` [Example 49, 3,5-Dichloro-N-[4-(1-propyl-azetidin-3-yl)-phenyl]-benzenesulfonamide] gave a Ki of 10 to 50 nM.

Take `CCCN1CC(c2ccc(NS(=O)(=O)c3cccc(C)c3)cc2)C1` [Example 50, 3-Methyl-N-[4-(1-propyl-azetidin-3-yl)-phenyl]-benzenesulfonamide]: the Ki was 50 to 150 nM.

With `CCCN1CC(c2ccc(NS(=O)(=O)c3cccc(Cl)c3Cl)cc2)C1` [Example 51, 2,3-Dichloro-N-[4-(1-propyl-azetidin-3-yl)-phenyl]-benzenesulfonamide], the Ki lay in the range of 50 to 150 nM.

The molecule `CCCN1CC(c2ccc(NS(=O)(=O)c3cccc(Br)c3)cc2)C1` [Example 52, 3-Bromo-N-[4-(1-propyl-azetidin-3-yl)-phenyl]-benzenesulfonamide] gave an inhibitory constant (Ki) of 10 to 50 nM.

Molecule `CCCN1CC(c2ccc(NS(=O)(=O)c3ccc(F)c(F)c3)cc2)C1` [Example 54, 3,4-Difluoro-N-[4-(1-propyl-azetidin-3-yl)-phenyl]-benzenesulfonamide] gave a Ki of 50 to 150 nM.

For `O=S(=O)(Nc1cccc(C2CCCNC2)c1)c1cccc(OC(F)(F)F)c1` (stereo not drawn) [Example 63, N-(3-Piperidin-3-yl-phenyl)-3-trifluoromethoxy-benzenesulfonamide hydrochloride], the inhibition constant Ki is 10 to 50 nM.
